Measured values: US10251394B2, “Molecules having pesticidal utility, and intermediates, compositions, and processes, related thereto” (Dow AgroSciences LLC, priority 2016, dated 2019)

What was measured:
Format in all cases: in vivo
[1] = test system: Beet Armyworm (Spodoptera exigua); test: Bioassay on Beet Armyworm (BAW), 128-well diet tray assay; settings: Beet Armyworm, Table ABC, read-out: BAW rating
How it was run: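 Percent mortality, averaged over eight wells, was scored after five to seven days at 25° C under 14:10 light-dark. Each well's diet carried 50 μg/cm^2 of test molecule applied in acetone-water (90:10) and dried before one to five second-instar larvae were added.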

[2] = test system: Yellow Fever Mosquito (Aedes aegypti); test: Bioassay on Yellow Fever Mosquito (YFM) larvae, 96-well plate; settings: Table ABC
How it was run: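 About 1-day-old larvae in water with liver powder were added to wells holding compound from a 4000 ppm DMSO master diluted in 90:10 water:acetone. Plates covered and kept at room temperature for 3 days, then each well scored for mortality on a rating scale.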

[3] = test system: Cabbage Looper (Trichoplusia ni); test: Bioassay on Cabbage Looper (CL), 128-well diet tray assay; settings: Cabbage Looper, Table ABC, read-out: CL rating
How it was run: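 Mortality after five to seven days at 25° C (14:10 photoperiod), averaged over eight wells per compound. Diet in each well carried 50 μg/cm^2 of dried test molecule and received one to five second-instar larvae.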

Question: Which pest or weed control at 50 µg/cm2 [1] does the source give for `C[C@@H](NC(=O)c1ccc(/C(F)=C/C(c2cc(Cl)c(C(F)F)c(Cl)c2)C(F)(F)F)cc1C(F)(F)F)C(=O)NCC(F)(F)F` (stereo partly drawn) [F142, 4-((Z)-3-(3,5-Dichloro-4-(difluoromethyl)phenyl)-1,4,4,4-tetrafluorobut-1-en-1-yl)-N—((R)-1-oxo-1-((2,2,2-trifluoroethyl)amino)propan-2-yl)-2-(trifluoromethyl)benzamide] here?
Answer: 50 to 100%

Question: What about the YFM rating [2] of the same compound?
Answer: A (80-100)

Question: And the pest or weed control at 50 µg/cm2 [3]?
Answer: 50 to 100%

Question: For `O=C(N[C@@H]1CON(CC(F)(F)F)C1=O)c1ccc(/C(F)=C/C(c2cc(Cl)c(C(F)F)c(Cl)c2)C(F)(F)F)cc1C(F)(F)F` (stereo partly drawn) [F143, 4-((2)-3-(3,5-Dichloro-4-(difluoromethyl)phenyl)-1,4,4,4-tetrafluorobut-1-en-1-yl)-N—((R)-3-oxo-2-(2,2,2-trifluoroethyl)isoxazolidin-4-yl)-2-(trifluoromethyl)benzamide], which pest or weed control at 50 µg/cm2 [1] is on record?
Answer: 50 to 100%

Question: And the YFM rating [2]?
Answer: A (80-100)

Question: And the pest or weed control at 50 µg/cm2 [3]?
Answer: 50 to 100%

Question: What does the source list for `C/C=C/c1c(Cl)cc(C(/C=C(\F)c2ccc(C(=O)N[C@H](C)C(=O)NCC(F)(F)F)c(C(F)(F)F)c2)C(F)(F)F)cc1Cl` (stereo partly drawn) [F147, 4-((Z)-3-(3,5-Dichloro-4-((E)-prop-1-en-1-yl)phenyl)-1,4,4,4-tetrafluorobut-1-en-1-yl)-N—((R)-1-oxo-1-((2,2,2-trifluoroethyl)amino)propan-2-yl)-2-(trifluoromethyl)benzamide]?
Answer: pest or weed control at 50 µg/cm2 [1]: 50 to 100%; YFM rating [2]: A (80-100); pest or weed control at 50 µg/cm2 [3]: 50 to 100%

Question: `O=C(CNC(=O)c1ccc(/C(F)=C/C(c2cc(F)c(F)c(Cl)c2)C(F)(F)F)cc1C(F)(F)F)NCC(F)(F)F` (stereo not drawn) [F153, (Z)-4-(3-(3-Chloro-4,5-difluorophenyl)-1,4,4,4-tetrafluorobut-1-en-1-yl)-N-(2-oxo-2-((2,2,2-trifluoroethyl)amino)ethyl)-2-(trifluoromethyl)benzamide] was tested. Which pest or weed control at 50 µg/cm2 [1] did it give?
Answer: 50 to 100%

Question: What about the YFM rating [2] of the same compound?
Answer: A (80-100)

Question: What about the pest or weed control at 50 µg/cm2 [3] of the same compound?
Answer: 50 to 100%

Question: Which pest or weed control at 50 µg/cm2 [1] does the source give for `O=C(CNC(=O)c1ccc(/C(F)=C/C(c2cc(F)cc(Cl)c2)C(F)(F)F)cc1C(F)(F)F)NCC(F)(F)F` (stereo not drawn) [F157, (Z)-4-(3-(3-Chloro-5-fluorophenyl)-1,4,4,4-tetrafluorobut-1-en-1-yl)-N-(2-oxo-2-((2,2,2-trifluoroethyl)amino)ethyl)-2-(trifluoromethyl)benzamide] here?
Answer: 50 to 100%

Question: What about the YFM rating [2] of the same compound?
Answer: A (80-100)

Question: What about the pest or weed control at 50 µg/cm2 [3] of the same compound?
Answer: 50 to 100%

Question: How did the pest or weed control at 50 µg/cm2 [1] turn out when `C[C@@H](NC(=O)c1ccc(/C(F)=C/C(c2cc(F)c(F)c(F)c2)C(F)(F)F)cc1C(F)(F)F)C(=O)NCC(F)(F)F` (stereo partly drawn) [F159, N—((R)-1-Oxo-1-((2,2,2-trifluoroethyl)amino)propan-2-yl)-4-((Z)-1,4,4,4-tetrafluoro-3-(3,4,5-trifluorophenyl)but-1-en-1-yl)-2-(trifluoromethyl)benzamide] was run?
Answer: 50 to 100%

Question: What about the YFM rating [2] of the same compound?
Answer: A (80-100)

Question: And the pest or weed control at 50 µg/cm2 [3]?
Answer: 50 to 100%

Question: Which results are given for `COc1ccc(C(/C=C(\F)c2ccc(C(=O)N[C@H](C)C(=O)NCC(F)(F)F)c(C(F)(F)F)c2)C(F)(F)F)cc1Cl` (stereo partly drawn) [F161, 4-((Z)-3-(3-Chloro-4-methoxyphenyl)-1,4,4,4-tetrafluorobut-1-en-1-yl)-N—((R)-1-oxo-1-((2,2,2-trifluoroethyl)amino)propan-2-yl)-2-(trifluoromethyl)benzamide]?
Answer: pest or weed control at 50 µg/cm2 [1]: 50 to 100%; YFM rating [2]: A (80-100); pest or weed control at 50 µg/cm2 [3]: 50 to 100%

Question: Which pest or weed control at 50 µg/cm2 [1] does the source give for `CC(=O)CNC(=O)CNC(=O)c1ccc(/C(F)=C/C(c2cc(Cl)c(Cl)c(Cl)c2)C(F)(F)F)cc1C(F)(F)F` (stereo not drawn) [F163, (Z)—N-(2-Oxo-2-((2-oxopropyl)amino)ethyl)-4-(1,4,4,4-tetrafluoro-3-(3,4,5-trichlorophenyl)but-1-en-1-yl)-2-(trifluoromethyl)benzamide] here?
Answer: 50 to 100%

Question: What about the YFM rating [2] of the same compound?
Answer: A (80-100)

Question: And the pest or weed control at 50 µg/cm2 [3]?
Answer: 50 to 100%

Question: Which pest or weed control at 50 µg/cm2 [1] does the source give for `CCc1ccc(C(/C=C(\F)c2ccc(C(=O)N[C@H](C)C(=O)NCC(F)(F)F)c(C(F)(F)F)c2)C(F)(F)F)cc1Cl` (stereo partly drawn) [F164, 4-((Z)-3-(3-Chloro-4-ethylphenyl)-1,4,4,4-tetrafluorobut-1-en-1-yl)-N—((R)-1-oxo-1-((2,2,2-trifluoroethyl)amino)propan-2-yl)-2-(trifluoromethyl)benzamide] here?
Answer: 50 to 100%

Question: What about the YFM rating [2] of the same compound?
Answer: B (More than 0-Less than 80)

Question: And the pest or weed control at 50 µg/cm2 [3]?
Answer: 50 to 100%

Question: `CCc1ccc(C(/C=C(\F)c2ccc(C(=O)NCC(=O)NCC(F)(F)F)c(C(F)(F)F)c2)C(F)(F)F)cc1Cl` (stereo not drawn) [F165, (Z)-4-(3-(3-Chloro-4-ethylphenyl)-1,4,4,4-tetrafluorobut-1-en-1-yl)-N-(2-oxo-2-((2,2,2-trifluoroethyl)amino)ethyl)-2-(trifluoromethyl)benzamide] was tested. Which pest or weed control at 50 µg/cm2 [1] did it give?
Answer: 50 to 100%

Question: What about the YFM rating [2] of the same compound?
Answer: B (More than 0-Less than 80)

Question: What about the pest or weed control at 50 µg/cm2 [3] of the same compound?
Answer: 50 to 100%

Question: Which pest or weed control at 50 µg/cm2 [1] does the source give for `C[C@@H](NC(=O)c1ccc(/C(F)=C/C(c2cc(Cl)c(Cl)c(Cl)c2)C(F)(F)F)cc1C(F)(F)F)C(=O)N(C)C` (stereo partly drawn) [F172, N—((R)-1-(Dimethylamino)-1-oxopropan-2-yl)-4-((Z)-1,4,4,4-tetrafluoro-3-(3,4,5-trichlorophenyl)but-1-en-1-yl)-2-(trifluoromethyl)benzamide] here?
Answer: 50 to 100%

Question: What about the YFM rating [2] of the same compound?
Answer: B (More than 0-Less than 80)

Question: And the pest or weed control at 50 µg/cm2 [3]?
Answer: 50 to 100%

Question: With `C[C@@H](NC(=O)c1ccc(/C(F)=C/C(c2ccc(C(F)(F)F)c(Cl)c2)C(F)(F)F)cc1C(F)(F)F)C(=O)NCC(F)(F)F` (stereo partly drawn) [F205, 4-((Z)-3-(3-Chloro-4-(trifluoromethyl)phenyl)-1,4,4,4-tetrafluorobut-1-en-1-yl)-N—((R)-1-oxo-1-((2,2,2-trifluoroethyl)amino)propan-2-yl)-2-(trifluoromethyl)benzamide] as the compound, how does the pest or weed control at 50 µg/cm2 [1] read?
Answer: 50 to 100%

Question: And the YFM rating [2]?
Answer: B (More than 0-Less than 80)

Question: And the pest or weed control at 50 µg/cm2 [3]?
Answer: 50 to 100%

Question: `C[C@@H](NC(=O)c1ccc(/C(F)=C/C(c2ccc(C(F)(F)F)c(Br)c2)C(F)(F)F)cc1C(F)(F)F)C(=O)NCC(F)(F)F` (stereo partly drawn) [F208, 4-((Z)-3-(3-Bromo-4-(trifluoromethyl)phenyl)-1,4,4,4-tetrafluorobut-1-en-1-yl)-N—((R)-1-oxo-1-((2,2,2-trifluoroethyl)amino)propan-2-yl)-2-(trifluoromethyl)benzamide] was tested. Which pest or weed control at 50 µg/cm2 [1] did it give?
Answer: 50 to 100%

Question: And the YFM rating [2]?
Answer: A (80-100)

Question: And the pest or weed control at 50 µg/cm2 [3]?
Answer: 50 to 100%

Question: Which results are given for `O=C(CNC(=O)c1ccc(/C(F)=C/C(c2ccc(C(F)(F)F)c(Br)c2)C(F)(F)F)cc1C(F)(F)F)NCC(F)(F)F` (stereo not drawn) [F209, (Z)-4-(3-(3-Bromo-4-(trifluoromethyl)phenyl)-1,4,4,4-tetrafluorobut-1-en-1-yl)-N-(2-oxo-2-((2,2,2-trifluoroethyl)amino)ethyl)-2-(trifluoromethyl)benzamide]?
Answer: pest or weed control at 50 µg/cm2 [1]: 50 to 100%; YFM rating [2]: A (80-100); pest or weed control at 50 µg/cm2 [3]: 50 to 100%

Question: For `C[C@@H](NC(=O)c1ccc(/C(F)=C/C(c2ccc(C(F)(F)F)c(F)c2)C(F)(F)F)cc1C(F)(F)F)C(=O)NCC(F)(F)F` (stereo partly drawn) [F210], which pest or weed control at 50 µg/cm2 [1] is on record?
Answer: 50 to 100%

Question: What about the YFM rating [2] of the same compound?
Answer: B (More than 0-Less than 80)

Question: What about the pest or weed control at 50 µg/cm2 [3] of the same compound?
Answer: 50 to 100%

Question: How did the pest or weed control at 50 µg/cm2 [1] turn out when `C[C@@H](NC(=O)c1ccc(/C(F)=C/C(c2cc(Cl)c(Cl)c(Cl)c2)C(F)(F)F)c2ccccc12)C(=O)NCC(F)(F)F` (stereo partly drawn) [PF1, N—((R)-1-Oxo-1-((2,2,2-trifluoroethyl)amino)propan-2-yl)-4-((Z)-1,4,4,4-tetrafluoro-3-(3,4,5-trichlorophenyl)but-1-en-1-yl)-1-naphthamide] was run?
Answer: 50 to 100%

Question: What about the YFM rating [2] of the same compound?
Answer: A (80-100)

Question: What about the pest or weed control at 50 µg/cm2 [3] of the same compound?
Answer: 50 to 100%

Question: `C[C@@H](NC(=O)c1ccc(/C(F)=C/C(c2ccc(Br)c(Br)c2)C(F)(F)F)cc1C(F)(F)F)C(=O)N(C)CC(F)(F)F` (stereo partly drawn) [PF2, 4-((Z)-3-(3,4-Dibromophenyl)-1,4,4,4-tetrafluoro-but-1-en-1-yl)-N—((R)-1-(methyl(2,2,2-trifluoroethyl)amino)-1-oxopropan-2-yl)-2-(trifluoromethyl)benzamide] was tested. Which pest or weed control at 50 µg/cm2 [1] did it give?
Answer: 50 to 100%

Question: And the YFM rating [2]?
Answer: A (80-100)

Question: And the pest or weed control at 50 µg/cm2 [3]?
Answer: 50 to 100%

Question: How did the pest or weed control at 50 µg/cm2 [1] turn out when `CN(CC(F)(F)F)C(=O)CNC(=O)c1ccc(/C(F)=C/C(c2ccc(Br)c(Br)c2)C(F)(F)F)cc1C(F)(F)F` (stereo not drawn) [PF4, (Z)-4-(3-(3,4-Dibromophenyl)-1,4,4,4-tetrafluorobut-1-en-1-yl)-N-(2-(methyl(2,2,2-trifluoroethyl)amino]-2-oxoethyl)-2-(trifluoromethyl)benzamide] was run?
Answer: 50 to 100%

Question: And the YFM rating [2]?
Answer: A (80-100)

Question: And the pest or weed control at 50 µg/cm2 [3]?
Answer: 50 to 100%

Question: What does the source list for `C[C@@H](NC(=O)c1ccc(/C(F)=C/C(c2ccc(F)c(Cl)c2)C(F)(F)F)cc1C(F)(F)F)C(=O)N(C)CC(F)(F)F` (stereo partly drawn) [PF8, 4-((Z)-3-(3-Chloro-4-fluorophenyl)-1,4,4,4-tetrafluorobut-1-en-1-yl)-N—((R)-1-(methyl(2,2,2-trifluoroethyl)amino)-1-oxopropan-2-yl)-2-(trifluoromethyl)benzamide]?
Answer: pest or weed control at 50 µg/cm2 [1]: 50 to 100%; YFM rating [2]: B (More than 0-Less than 80); pest or weed control at 50 µg/cm2 [3]: 50 to 100%

Question: Which pest or weed control at 50 µg/cm2 [1] does the source give for `CN(CC(F)(F)F)C(=O)C1(NC(=O)c2ccc(/C(F)=C/C(c3ccc(F)c(Cl)c3)C(F)(F)F)cc2C(F)(F)F)CC1` (stereo not drawn) [PF10] here?
Answer: 50 to 100%

Question: And the YFM rating [2]?
Answer: A (80-100)

Question: And the pest or weed control at 50 µg/cm2 [3]?
Answer: 50 to 100%
